Results from ChEMBL document CHEMBL1201862, “PubChem BioAssay data set” (2004).
Activity calls are given as the source filed them.

What was measured:
Hexokinase HKDC1 = molecular target: T1, Hexokinase HKDC1 (Homo sapiens, UniProt Q2TB90); test: SAR analysis of small molecule inhibitors of hexokinase domain containing I (HKDC1). [Related pubchem assays (depositor defined):AID493160, AID493190]; format: functional
T1 sequence (Q2TB90 whole entry): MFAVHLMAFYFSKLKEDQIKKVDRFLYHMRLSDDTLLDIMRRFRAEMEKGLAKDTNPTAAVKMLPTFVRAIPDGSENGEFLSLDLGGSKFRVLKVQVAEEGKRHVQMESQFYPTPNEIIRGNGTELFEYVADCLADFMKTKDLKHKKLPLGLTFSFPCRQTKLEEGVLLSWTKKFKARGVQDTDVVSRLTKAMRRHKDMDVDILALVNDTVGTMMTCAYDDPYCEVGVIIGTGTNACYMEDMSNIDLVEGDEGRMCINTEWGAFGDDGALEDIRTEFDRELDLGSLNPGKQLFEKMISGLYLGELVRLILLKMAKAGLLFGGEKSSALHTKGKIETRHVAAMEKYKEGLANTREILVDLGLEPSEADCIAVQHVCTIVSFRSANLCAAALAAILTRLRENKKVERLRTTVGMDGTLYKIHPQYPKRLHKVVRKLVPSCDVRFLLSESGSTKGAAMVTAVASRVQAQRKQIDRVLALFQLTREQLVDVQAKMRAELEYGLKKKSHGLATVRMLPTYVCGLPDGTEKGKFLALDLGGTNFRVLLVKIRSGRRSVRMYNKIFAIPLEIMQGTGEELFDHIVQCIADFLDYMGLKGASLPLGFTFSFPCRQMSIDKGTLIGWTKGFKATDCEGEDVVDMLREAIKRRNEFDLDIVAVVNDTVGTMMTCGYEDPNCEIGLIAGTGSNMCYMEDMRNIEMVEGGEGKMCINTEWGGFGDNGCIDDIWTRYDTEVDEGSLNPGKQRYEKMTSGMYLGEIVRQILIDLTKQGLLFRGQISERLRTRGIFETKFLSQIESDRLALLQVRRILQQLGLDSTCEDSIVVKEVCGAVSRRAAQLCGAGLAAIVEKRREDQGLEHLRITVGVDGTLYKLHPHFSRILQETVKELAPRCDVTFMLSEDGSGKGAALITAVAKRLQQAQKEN

Hexokinase-1 = Hexokinase-1 (Homo sapiens, UniProt P19367); test: SAR analysis of small molecule inhibitors of hexokinase domain containing I (HKDC1) in the hexokinase 1 selectivity assay. [Related pubchem assays (depositor defined):AID493160, AID493190]; format: functional
Hexokinase-1, sequence (P19367 whole entry, the tested form may be a part): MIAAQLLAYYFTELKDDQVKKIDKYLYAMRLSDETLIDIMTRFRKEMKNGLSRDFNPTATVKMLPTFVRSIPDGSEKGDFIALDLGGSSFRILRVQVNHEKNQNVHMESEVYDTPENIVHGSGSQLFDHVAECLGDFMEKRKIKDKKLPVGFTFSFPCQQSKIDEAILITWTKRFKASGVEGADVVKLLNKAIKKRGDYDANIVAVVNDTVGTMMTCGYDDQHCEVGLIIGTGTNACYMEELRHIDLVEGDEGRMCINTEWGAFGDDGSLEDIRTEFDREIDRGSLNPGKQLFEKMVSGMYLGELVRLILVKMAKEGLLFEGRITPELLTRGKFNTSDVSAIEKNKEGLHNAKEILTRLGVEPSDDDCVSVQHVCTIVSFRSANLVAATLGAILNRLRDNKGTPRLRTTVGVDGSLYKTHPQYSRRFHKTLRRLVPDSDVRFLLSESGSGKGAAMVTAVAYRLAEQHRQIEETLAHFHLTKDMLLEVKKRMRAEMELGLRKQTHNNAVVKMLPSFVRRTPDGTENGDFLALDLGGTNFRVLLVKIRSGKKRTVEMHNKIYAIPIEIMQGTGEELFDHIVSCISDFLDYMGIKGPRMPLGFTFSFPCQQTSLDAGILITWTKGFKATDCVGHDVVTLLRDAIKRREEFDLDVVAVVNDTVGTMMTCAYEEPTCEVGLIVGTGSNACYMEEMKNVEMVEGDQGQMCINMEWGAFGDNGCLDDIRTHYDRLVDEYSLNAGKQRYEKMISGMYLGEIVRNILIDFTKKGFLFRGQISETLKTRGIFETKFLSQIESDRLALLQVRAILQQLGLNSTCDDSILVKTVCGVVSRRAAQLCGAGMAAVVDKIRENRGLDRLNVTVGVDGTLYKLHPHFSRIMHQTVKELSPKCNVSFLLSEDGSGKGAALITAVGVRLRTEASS

[1] = molecular target: Dual specificity protein kinase CLK1 (Homo sapiens, UniProt P49759); test: CLK1 kinase inhibitors, off-target check, dose response, selectivity assay for Dyrk1A inhibitor project, biochemical, cherry-picked samples (AID 588811)
Dual specificity protein kinase CLK1, sequence (P49759 whole entry): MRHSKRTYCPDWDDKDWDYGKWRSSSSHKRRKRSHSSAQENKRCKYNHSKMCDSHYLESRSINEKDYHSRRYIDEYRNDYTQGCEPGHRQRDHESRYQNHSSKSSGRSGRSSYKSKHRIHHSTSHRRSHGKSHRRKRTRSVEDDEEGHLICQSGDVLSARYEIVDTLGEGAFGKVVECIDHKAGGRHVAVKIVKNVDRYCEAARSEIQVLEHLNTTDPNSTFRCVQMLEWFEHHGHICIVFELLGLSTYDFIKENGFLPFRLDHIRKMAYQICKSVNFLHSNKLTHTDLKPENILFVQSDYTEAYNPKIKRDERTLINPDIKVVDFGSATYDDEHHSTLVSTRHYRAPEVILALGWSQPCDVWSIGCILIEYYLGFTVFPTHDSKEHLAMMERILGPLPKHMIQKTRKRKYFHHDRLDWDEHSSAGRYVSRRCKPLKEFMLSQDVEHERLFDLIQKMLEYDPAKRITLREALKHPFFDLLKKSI

[2] = molecular target: Dual specificity tyrosine-phosphorylation-regulated kinase 1A (Rattus norvegicus, UniProt Q63470); format: biochemical, Homo sapiens
[3] = molecular target: FAD-linked sulfhydryl oxidase ALR (Homo sapiens, UniProt P55789); test: inhibitors of human ALR sulfhydryl oxidase, dose response, biochemical, H2O2 detection, luminescence, cherry-pick (AID 493248)
FAD-linked sulfhydryl oxidase ALR, sequence (P55789 whole entry): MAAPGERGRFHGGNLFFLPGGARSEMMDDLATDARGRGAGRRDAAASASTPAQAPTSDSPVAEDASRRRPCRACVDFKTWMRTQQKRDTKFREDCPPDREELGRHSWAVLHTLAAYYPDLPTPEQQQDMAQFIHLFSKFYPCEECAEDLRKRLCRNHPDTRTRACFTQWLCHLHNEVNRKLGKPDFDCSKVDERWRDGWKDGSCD

[4] = molecular target: T2, Intestinal-type alkaline phosphatase (Homo sapiens, UniProt P09923); test: human intestinal alkaline phosphatase activators, dose response, biochemical, luminescence, uHTS hits (AID 463120); format: functional
T2 sequence (P09923 whole entry): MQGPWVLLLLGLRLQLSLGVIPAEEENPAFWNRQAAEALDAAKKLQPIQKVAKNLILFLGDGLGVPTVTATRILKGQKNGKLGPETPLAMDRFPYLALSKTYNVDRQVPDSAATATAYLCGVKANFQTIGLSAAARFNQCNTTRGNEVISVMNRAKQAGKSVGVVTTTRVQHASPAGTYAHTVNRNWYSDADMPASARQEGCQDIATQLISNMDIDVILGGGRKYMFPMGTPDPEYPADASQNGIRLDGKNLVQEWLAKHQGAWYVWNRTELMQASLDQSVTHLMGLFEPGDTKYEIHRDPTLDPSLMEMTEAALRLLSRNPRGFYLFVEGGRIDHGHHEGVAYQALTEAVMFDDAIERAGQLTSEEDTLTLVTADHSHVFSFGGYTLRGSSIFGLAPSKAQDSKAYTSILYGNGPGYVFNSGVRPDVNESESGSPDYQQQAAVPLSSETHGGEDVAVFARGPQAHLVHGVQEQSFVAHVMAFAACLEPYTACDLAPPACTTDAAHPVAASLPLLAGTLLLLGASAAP

[5] = molecular target: T2, Intestinal-type alkaline phosphatase; test: human IAP activators, dose response, biochemical, luminescent, uHTS hits, set 2 (AID 488817); format: functional;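 further: potency of activators that raise enzyme activity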
[6] = molecular target: Intestinal-type alkaline phosphatase (Mus musculus, UniProt P24822); test: PubChem AID 488874; format: functional
Intestinal-type alkaline phosphatase (Mus musculus, UniProt P24822), sequence (P24822 whole entry): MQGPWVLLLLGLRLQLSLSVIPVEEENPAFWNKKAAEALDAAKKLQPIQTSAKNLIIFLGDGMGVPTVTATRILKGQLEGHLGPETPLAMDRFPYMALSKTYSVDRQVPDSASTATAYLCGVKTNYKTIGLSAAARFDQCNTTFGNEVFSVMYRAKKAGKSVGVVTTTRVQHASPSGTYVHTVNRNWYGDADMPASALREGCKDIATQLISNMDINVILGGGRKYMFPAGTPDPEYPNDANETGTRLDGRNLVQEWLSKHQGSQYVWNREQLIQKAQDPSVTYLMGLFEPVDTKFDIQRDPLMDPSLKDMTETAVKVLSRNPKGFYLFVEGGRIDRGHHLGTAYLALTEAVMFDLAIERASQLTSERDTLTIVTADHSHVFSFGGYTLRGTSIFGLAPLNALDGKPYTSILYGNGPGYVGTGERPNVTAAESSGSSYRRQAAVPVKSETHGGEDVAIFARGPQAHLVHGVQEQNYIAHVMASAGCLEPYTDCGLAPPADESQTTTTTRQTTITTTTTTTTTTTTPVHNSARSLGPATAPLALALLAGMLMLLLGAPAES

[7] = molecular target: T3, Alkaline phosphatase, tissue-nonspecific isozyme (Homo sapiens, UniProt P05186); test: TNAP enzyme activators, dose response, selectivity assay for human IAP activator project, biochemical, TNAP isozyme, human IAP uHTS hits (AID 488886); format: functional;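 further: potency of compounds raising TNAP activity as a selectivity check on IAP activators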
T3 sequence (P05186 whole entry): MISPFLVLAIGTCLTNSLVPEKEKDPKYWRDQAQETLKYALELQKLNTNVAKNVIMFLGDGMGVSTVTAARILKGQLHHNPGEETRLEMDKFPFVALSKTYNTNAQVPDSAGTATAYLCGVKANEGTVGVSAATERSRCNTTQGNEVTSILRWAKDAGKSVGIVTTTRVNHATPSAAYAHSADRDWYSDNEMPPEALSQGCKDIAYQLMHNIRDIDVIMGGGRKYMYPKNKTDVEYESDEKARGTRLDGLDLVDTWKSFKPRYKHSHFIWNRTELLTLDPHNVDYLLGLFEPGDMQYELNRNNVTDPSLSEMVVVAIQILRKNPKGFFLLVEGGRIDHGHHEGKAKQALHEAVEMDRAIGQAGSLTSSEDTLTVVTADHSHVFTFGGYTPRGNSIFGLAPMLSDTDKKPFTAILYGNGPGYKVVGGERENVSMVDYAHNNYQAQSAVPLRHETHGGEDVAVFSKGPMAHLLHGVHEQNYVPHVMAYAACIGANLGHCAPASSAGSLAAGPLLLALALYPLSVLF

Compound	IC50 (Hexokinase HKDC1)	IC50 (Hexokinase-1)	AC50 [1]	further results
O=c1c2ccccc2nc(/C=C/c2cccc(Cl)c2)n1Cc1ccccc1	> 80 µM (inactive)	> 80 µM (inactive)	–	–
c1nc(NCC2CCCOC2)c2cc(-c3ccc4c(c3)OCO4)ccc2n1 (configuration not stated)	–	–	0.0101 µM (active)	–
NC(=O)c1c(NC(=O)c2ccc(N3C(=O)CCC3=O)cc2)sc2c1CCCC2	–	–	0.853 µM (active)	AC50 [2]: 3.9 µM (active); AC50 [3]: 0.165 µM (active)
O=c1c2ccccc2nc(/C=C/c2cccnc2)n1Cc1ccccc1Cl	> 80 µM (inactive)	> 80 µM (inactive)	–	–
O=C(NNC(=S)NCc1ccco1)c1ccccc1Br	–	–	–	EC50 [4]: 9.62 µM (active); EC50 [5]: 13.8 µM (active); IC50 [6]: 53.9 µM (active); EC50 [7]: 12 µM (active)
